Reference: patent US4595678A, “N-substituted pseudo-aminosugars and pharmaceutical compositions containing same” (Takeda Chemical Industries, Ltd., priority 1982, dated 1986)
Where two headings read alike, the source gives them in different places.

Columns and labels:
[1] = molecular target: T1, saccharase (porcine intestinal mucosa) (Sus scrofa, UniProt P56729); assay: Glucosidase inhibitory activity, saccharase (sucrose as substrate); format: biochemical
T1 construct: prepared from porcine intestinal mucosa; from tissue; host or cells: porcine intestinal mucosa
Experimental: (§1) The method of assaying the glucosidase inhibitory activity.
(§2) The inhibitory activities against maltase or saccharase prepared from porcine intestinal mucosa [prepared in accordance with the procedure as described by B. Borgstrom and A. Dahlqvist in Acta Chem. Scand., 12, 1997-2006, (1958)], when maltose or sucrose is used as a substrate, were determined by adding, to 0.25 ml of a solution of an enzyme prepared by diluting suitably with 0.02M phosphate buffer (pH 6.8), 0.5 ml of an inhibitory substance to be tested (compound [I] or a pharmaceutically acceptable salt thereof) in the same buffer and 0.25 ml of 0.05M maltose or 0.05M sucrose as the substrate in the same buffer, allowing the mixture to react at 37° C. for 10 minutes, then adding 3 ml of Glucose B-Test Reagent (a glucose oxidase reagent for measurement of glucose, produced by Wako Pure Chemical Co., Japan), further warming the mixture at 37° C. for 20 minutes and measuring the absorbance of the colored reaction solution at 505 nm.

[2] = molecular target: maltase (porcine intestinal mucosa); assay: Glucosidase inhibitory activity, maltase (maltose as substrate); format: biochemical; conditions: read-out: IC50 (maltase), 50% inhibition concentration, pH 6.8, 37° C., 10 minutes
Experimental: as §1, §2

[3] = read-out: IC50 (saccharase), 50% inhibition concentration, pH 6.8, 37° C., 10 minutes

T1 sequence (P56729 with tags, fused parts or gaps limits assumed): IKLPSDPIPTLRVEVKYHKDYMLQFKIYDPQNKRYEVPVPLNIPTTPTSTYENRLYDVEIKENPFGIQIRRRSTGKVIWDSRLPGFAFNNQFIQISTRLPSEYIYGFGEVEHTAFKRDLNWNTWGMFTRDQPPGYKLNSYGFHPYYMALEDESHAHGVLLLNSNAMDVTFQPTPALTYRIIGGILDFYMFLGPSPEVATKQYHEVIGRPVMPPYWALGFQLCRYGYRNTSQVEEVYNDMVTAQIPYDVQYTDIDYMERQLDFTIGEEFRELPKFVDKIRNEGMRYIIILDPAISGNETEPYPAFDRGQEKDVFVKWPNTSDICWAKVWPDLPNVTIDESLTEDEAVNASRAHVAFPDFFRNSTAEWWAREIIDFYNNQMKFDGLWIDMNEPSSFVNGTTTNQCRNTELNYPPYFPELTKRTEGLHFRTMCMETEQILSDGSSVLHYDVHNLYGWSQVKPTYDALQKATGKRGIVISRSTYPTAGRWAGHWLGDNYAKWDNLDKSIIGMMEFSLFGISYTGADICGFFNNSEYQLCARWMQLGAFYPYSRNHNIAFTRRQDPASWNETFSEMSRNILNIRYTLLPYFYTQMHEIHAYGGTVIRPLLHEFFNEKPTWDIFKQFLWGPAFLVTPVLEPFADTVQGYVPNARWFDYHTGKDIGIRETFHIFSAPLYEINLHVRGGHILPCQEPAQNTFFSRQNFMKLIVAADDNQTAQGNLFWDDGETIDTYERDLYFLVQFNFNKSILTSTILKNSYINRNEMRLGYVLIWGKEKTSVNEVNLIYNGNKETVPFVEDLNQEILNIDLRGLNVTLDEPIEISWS
T1 sequence (P56729 with tags, fused parts or gaps partner limits assumed): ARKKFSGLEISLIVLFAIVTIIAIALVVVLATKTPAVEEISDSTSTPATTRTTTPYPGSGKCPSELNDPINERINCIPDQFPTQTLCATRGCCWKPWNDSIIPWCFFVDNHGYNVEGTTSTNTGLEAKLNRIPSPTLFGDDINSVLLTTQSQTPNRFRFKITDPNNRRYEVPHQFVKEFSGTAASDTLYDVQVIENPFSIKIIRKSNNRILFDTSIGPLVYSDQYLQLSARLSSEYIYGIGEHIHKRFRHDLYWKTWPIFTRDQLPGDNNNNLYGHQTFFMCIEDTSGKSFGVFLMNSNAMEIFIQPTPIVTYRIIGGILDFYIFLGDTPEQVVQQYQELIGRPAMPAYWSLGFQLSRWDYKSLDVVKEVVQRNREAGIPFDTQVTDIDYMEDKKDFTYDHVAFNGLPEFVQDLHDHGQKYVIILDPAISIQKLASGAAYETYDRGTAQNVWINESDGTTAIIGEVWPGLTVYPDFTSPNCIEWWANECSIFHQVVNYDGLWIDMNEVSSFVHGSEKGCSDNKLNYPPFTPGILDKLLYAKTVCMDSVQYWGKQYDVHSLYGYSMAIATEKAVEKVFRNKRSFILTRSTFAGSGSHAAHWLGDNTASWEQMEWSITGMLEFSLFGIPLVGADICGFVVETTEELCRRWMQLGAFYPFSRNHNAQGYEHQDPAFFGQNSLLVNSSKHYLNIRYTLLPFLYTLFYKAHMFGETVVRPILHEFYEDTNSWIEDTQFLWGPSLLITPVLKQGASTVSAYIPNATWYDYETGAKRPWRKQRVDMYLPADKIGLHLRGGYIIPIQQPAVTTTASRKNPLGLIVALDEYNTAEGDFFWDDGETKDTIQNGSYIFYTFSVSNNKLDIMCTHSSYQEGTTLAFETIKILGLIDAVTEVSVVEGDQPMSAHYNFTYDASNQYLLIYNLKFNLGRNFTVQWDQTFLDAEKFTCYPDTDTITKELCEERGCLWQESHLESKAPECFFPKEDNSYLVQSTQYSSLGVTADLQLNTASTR

Row | IC50 ([1]; pH 6.8, 37° C., 10 minutes) [nM] | IC50 [2] [nM] | IC50 [1, 3] [nM] | Structure (SMILES)
1 | 80 | 120 |  | C[C@H]1O[C@H](O[C@H]2[C@H](O)[C@@H](O)C(O)O[C@@H]2CO)[C@H](O)[C@@H](O)[C@@H]1N[C@H]1C[C@](O)(CO)[C@@H](O)[C@H](O)[C@H]1O (stereo partly drawn) [Example 28, 4-O-α-[4-[(1S)-(1,2,4,5(OH)/3,5(CH2 OH))-(2,3,4,5-Tetrahydroxy-5-(hydroxymethyl)cyclohexyl)amino]-4,6-dideoxy-D-glucopyranosyl]-D-glucopyranose]
2 |  | 110 | 90 | OC[C@H]1OC(O)[C@H](O)C(N[C@H]2C[C@](O)(CO)[C@@H](O)[C@H](O)[C@H]2O)[C@@H]1O (some centres unmarked) [N-(2,3,5-trihydroxy-6-hydroxymethyltetrahydropyran-4-yl)valiolamine]
3 |  | 2800 | 230 | N[C@H]1C[C@H](CO)C(N[C@H]2C[C@](O)(CO)[C@@H](O)[C@H](O)[C@H]2O)[C@H](O)[C@H]1O (single isomer, unassigned) [Example 8,4-amino derivative from the later eluted component of Example 7]
4 | 740 | 1800 |  | CO[C@H]1O[C@H](C)[C@@H](N[C@H]2C[C@H](CO)[C@@H](O)[C@H](O)[C@H]2O)[C@H](O)[C@H]1O [Example 1,6-deoxyglucopyranoside isomer, Methyl 4-[(1S,2S)-(2,4/3,5)-2,3,4-trihydroxy-5-hydroxymethylcyclohexyl]amino-4,6-dideoxy-α-D-glucopyranoside]
5 |  |  | 880 | NC1CC(N)C(N[C@H]2C[C@H](CO)[C@@H](O)[C@H](O)[C@H]2O)C(O)C1O (some centres unmarked) [Example 14, N-(2,4-Diamino-5,6-dihydroxycyclohexyl)validamine]
6 | 1000 |  |  | CO[C@H]1O[C@H](CO)[C@H](N[C@H]2C[C@H](CO)[C@@H](O)[C@H](O)[C@H]2O)[C@H](O)[C@H]1O [Example 3, Galactopyranoside isomer, Methyl 4-[(1S,2S)-(2,4/3,5)-2,3,4-trihydroxy-5-hydroxymethylcyclohexyl]amino-4-deoxy-α-D-galactopyranoside]
7 |  | 2900 | 1600 | N[C@H]1C[C@H](CO)C(N[C@H]2C[C@H](CO)[C@@H](O)[C@H](O)[C@H]2O)[C@H](O)[C@H]1O (single isomer, unassigned) [Example 6, first eluted isomer]
8 |  |  | 78000 | N[C@H]1C[C@H](CO)C(N[C@H]2C[C@H](CO)[C@@H](O)[C@H](O)[C@H]2O)[C@H](O)[C@H]1O (single isomer, unassigned) [Example 6, later eluted isomer]
9 |  | 1900 | 170 | OC[C@H]1C[C@H](NC2[C@@H](O)C(O)O[C@H](CO)[C@H]2O)[C@H](O)[C@@H](O)[C@@H]1O (some centres unmarked) [N-(2,3,5-trihydroxy-6-hydroxymethyltetrahydropyran-4-yl)validamine]
10 |  | 3300 | 250 | N[C@H]1C[C@H](CO)C(N[C@H]2C[C@](O)(CO)[C@@H](O)[C@H](O)[C@H]2O)[C@H](O)[C@H]1O (single isomer, unassigned) [Example 8,4-amino derivative from the first eluted component of Example 7]
11 | 80 | 72 |  | CO[C@H]1O[C@H](CO)[C@@H](N[C@H]2C[C@](O)(CO)[C@@H](O)[C@H](O)[C@H]2O)[C@H](O)[C@H]1O [Example 4, Glucopyranoside isomer, Methyl 4-[(1S,2S)-(2,4,5(OH)/3,5(CH2 OH))-2,3,4,5-tetrahydroxy-5-hydroxymethylcyclohexyl]amino-4-deoxy-α-D-glucopyranoside]
12 | 700 |  |  | O=C(N[C@H]1C[C@H](CO)C(N[C@H]2C[C@H](CO)[C@@H](O)[C@H](O)[C@H]2O)[C@H](O)[C@H]1O)OCc1ccccc1 (stereo partly drawn) [Example 5, [(1S,2S)-(2,4/3,5)-2,3,4-Trihydroxy-5-hydroxymethylcyclohexyl][(2S)-(2,6/3,4)-4-benzyloxycarbonylamino-2,3-dihydroxy-6-hydroxy-methylcyclohexyl]amine]
13 | 48 | 44 |  | OC[C@H]1C[C@@H](N[C@H]2C[C@](O)(CO)[C@@H](O)[C@H](O)[C@H]2O)[C@H](O)[C@@H](O)[C@@H]1O [Example 18, (1R,2S) isomer, N-[(1R,2S)-(2,4/3,5)-2,3,4-trihydroxy-5-hydroxymethylcyclohexyl]valiolamine]
14 | 700 |  |  | CO[C@H]1O[C@H](C)[C@@H](N[C@H]2C=C(CO)[C@@H](O)[C@H](O)[C@H]2O)[C@H](O)[C@H]1O [Reference Example 40,6-deoxyglucopyranoside isomer, Methyl 4-[(1S,6S)-(4,6/5)-4,5,6-trihydroxy-3-hydroxymethyl-2-cyclohexen-1-yl]amino-4,6-dideoxy-α-D-glucopyranoside]
15 | 25 | 130 |  | C[C@H]1O[C@H](O[C@H]2[C@H](O)[C@@H](O)[C@@H]3OC[C@H]2O3)[C@H](O)[C@@H](O)[C@@H]1N[C@H]1C[C@](O)(CO)[C@@H](O)[C@H](O)[C@H]1O [Example 25, isomer (b)]
16 |  | 9000 | 4900 | CCOC(=O)NC1CC(NC(=O)OCC)C(N[C@H]2C[C@](O)(CO)[C@@H](O)[C@H](O)[C@H]2O)C(O)C1O (some centres unmarked) [Example 11, N-(2,4-Diethoxycarbonylamino-5,6-dihydroxycyclohexyl)valiolamine]
17 | 580 | 4400 |  | CO[C@H]1O[C@H](CO)[C@@H](N[C@H]2C[C@H](CO)[C@@H](O)[C@H](O)[C@H]2O)[C@H](O)[C@H]1O [Example 3, Glucopyranoside isomer, Methyl 4-[(1S,2S)-(2,4/3,5)-2,3,4-trihydroxy-5-hydroxymethylcyclohexyl]amino-4-deoxy-α-D-glucopyranoside]
18 | 620 | 320 |  | CO[C@H]1O[C@H](CO)[C@H](N[C@H]2C[C@](O)(CO)[C@@H](O)[C@H](O)[C@H]2O)[C@H](O)[C@H]1O [Example 4, Galactopyranoside isomer, Methyl 4-[(1S,2S)-(2,4,5(OH)/3,5-(CH2 OH))-2,3,4,5-tetrahydroxy-5-hydroxymethylcyclohexyl]amino-4-deoxy-α-D-galactopyranoside]
19 |  | 31000 | 450 | OCC1=C[C@H](NC2[C@@H](O)C(O)O[C@H](CO)[C@H]2O)[C@H](O)[C@@H](O)[C@@H]1O (some centres unmarked) [N-(2,3,5-trihydroxy-6-hydroxymethyltetrahydropyran-4-yl)valienamine]
20 |  |  | 37000 | CC1(C)O[C@H]2O[C@H]([C@H](O)CO)C(N[C@H]3C[C@](O)(CO)[C@@H](O)[C@H](O)[C@H]3O)[C@H]2O1 (some centres unmarked) [N-[2,3-O-isopropylidene-2,3-dihydroxy-5-(1,2-dihydroxyethyl)tetrahydrofuran-4-yl]valiolamine]
21 |  | 1000 | 88 | NC1CC(N)C(N[C@H]2C[C@](O)(CO)[C@@H](O)[C@H](O)[C@H]2O)C(O)C1O (single isomer, unassigned) [Example 12, Isomer D, N-(2,4-Diamino-5,6-dihydroxycyclohexyl)valiolamine]
22 | 24000 |  |  | CC1(O)CC(N)C(O)C(O)C1O (centres unmarked) [compound 26, 7-Deoxyvaliolamine]
23 | 270 | 2200 |  | OC[C@H]1C[C@H](N[C@@H]2C[C@H](CO)[C@@H](O)[C@H](O)[C@H]2O)[C@H](O)[C@@H](O)[C@@H]1O [Example 17, (1R,2S) isomer, N-[(1R,2S)-(2,4/3,5)-2,3,4-trihydroxy-5-hydroxymethylcyclohexyl]validamine]
24 |  |  | 35 | C[C@H]1CC(O)[C@H](O)[C@@H](O)[C@@H]1N[C@H]1C[C@](O)(CO)[C@@H](O)[C@H](O)[C@H]1O (single isomer, unassigned) [Example 21, isomer (a)]
25 | 5600 |  |  | CO[C@H]1O[C@H](C)[C@H](N[C@H]2C[C@H](CO)[C@@H](O)[C@H](O)[C@H]2O)[C@H](O)[C@H]1O [Example 1,6-deoxygalactopyranoside isomer, Methyl 4-[(1S,2S)-(2,4/3,5)-2,3,4-trihydroxy-5-hydroxymethylcyclohexyl]amino-4,6-dideoxy-α-D-galactopyranoside]
26 | 53 |  |  | C[C@H]1C[C@H](N)[C@H](O)[C@@H](O)[C@H]1N[C@H]1C[C@](O)(CO)[C@@H](O)[C@H](O)[C@H]1O [Example 20, isomer (b), N-[(1S,2S)-(2,6/3,4)-4-amino-2,3-dihydroxy-6-methylcyclohexyl]valiolamine]
27 | 5600 |  |  | OC[C@H]1C[C@H](N[C@H]2C[C@](O)(CO)[C@@H](O)[C@H](O)[C@H]2O)[C@H](O)[C@@H](O)[C@@H]1O [Example 18, (1S,2S) isomer, N-[(1S,2S)-(2,4/3,5)-2,3,4-trihydroxy-5-hydroxymethylcyclohexyl]valiolamine]
28 |  |  | 36 | C[C@H]1CC(O)[C@H](O)[C@@H](O)[C@@H]1N[C@H]1C[C@](O)(CO)[C@@H](O)[C@H](O)[C@H]1O (single isomer, unassigned) [Example 21, isomer (b)]
